Test results: patent US6962909B2, “Treatment of neovascularization disorders with squalimine” (Genaera Corporation, priority 1995, dated 2005)

Experiments:
Murine B16 melanoma = experiment: In vitro cell growth inhibition (assay of Baker et al.); assay type: cell-based; conditions: except at very high concentrations
From the text: (§1) As set forth in Table 7 below, all malignant tumors evaluated in tissue culture, endothelial cells and vascular smooth muscle cells were sensitive to inhibition. Thus, compound 1436 has application in the control of growth factor dependent proliferation of many types of tissue.

VX2 carcinoma = experiment: Tumor-induced corneal neovascularization in rabbits; assay type: in vivo, rabbit; conditions: pellet of ELVAX 40 P
From the text: The implantation of VX2 carcinoma into the rabbit cornea results in the induction of new blood vessels within several days (Tamargo et al., Cancer Research 51, 1991, 672-675). It is believed that this carcinoma secretes growth factors that stimulate new blood-vessel growth. Thus, this model is indicative in vivo evidence of therapeutic utility in the treatment of pathological disorders of vascularization, including the metastatic spread of tumors, diabetic retinopathy, macular degeneration, and rheumatoid arthritis.
This experiment followed the published protocol—tumor was implanted adjacent to a polymer containing a concentration of the agent to be evaluated. The polymer releases the agent slowly in the immediate neighborhood of the tumor, providing sustained high local concentrations of the agent. In this experiment, squalamine introduced into a pellet of ELVAX 40 P (DuPont, Wilmington, Del.) inhibited new blood vessel formation by about 60% at days 7 and 14, and by about 25% at day 21.

human melanoma 1205Lu = experiment: Growth of human melanoma 1205Lu in RAG-1 mice; assay type: in vivo; conditions: 10, 20, 40 mg/kg/d; started when tumors about 0.1 ml
From the text: As apparent from FIG. 5, melanoma 1205Lu develops aggressively in RAG-1 mice after implantation.

[1] = test system: bovine pulmonary endothelial cells; experiment: Cell growth with membrane-active agents (absorbance at 600 nm); assay type: cell-based; conditions: 1 μg/ml
Procedure: (§2) Cell growth was measured by absorbance at 600 nm.

[2] = test system: human foreskin fibroblasts; experiment: as above; assay type: cell-based; conditions: 10 μg/ml
Procedure: as §2

[3] = test system: human epithelial cell line MCF 10A; experiment: as above; assay type: cell-based; conditions: 10 μg/ml
Procedure: as §2

[4] = test system: human umbilical venous endothelial cells; experiment: LPS/TNF-α-induced neutrophil adherence to endothelial cells; assay type: cell-based; conditions: squalamine 10 μg, 1.0 μg or 0.1 μg; three subjects
Procedure: To determine if squalamine inhibited this particular endothelial cell function, standard adhesion assays were performed as outlined in Gamble et al., J. Imm. Methods 109, 1988, 175-184. […] In these experiments, approximately 2×10^5 human umbilical venous cells (passage 2-6) were plated per well. The cells were grown in serum-free media overnight. For induction, either TNF-α (40 ng/ml) was added to endothelial cells for 6 hours prior to adding neutrophils or LPS (100 ng/ml) was added for 4-6 hours. […] After activation of the endothelial cells, approximately 50×10^6 neutrophils were added per well. The plates were gently rocked for 30 minutes at room temperature, followed by removal of the media and washing in serum-free media three times and then photographing of each well. Experiments to test the effects of squalamine were performed by adding squalamine at 10 μg, 1.0 μg, or 0.1 μg at the time of adding LPS or TNF-α. A second repeat dose of squalamine was added at the time of adding neutrophils. A monoclonal Ab to ICAM-1 was a positive control.

[5] = Arterial pressure in catheterized rat; assay type: in vivo
Procedure: A 200-g rat was catheterized in the right carotid artery, and the compound was introduced over a ten-second period to a total dosage of 5 mg/kg. Within 30 seconds, the mean arterial pressure had fallen from about 100 mm Hg to about 70 mm Hg, with a marked reduction in pulse pressure from about 40 mm to about 10 mm. […] If cardiac output was basically unaffected, reduction in blood pressure would have resulted principally from a reduction in system resistance.
At that time, 40 μg of noradrenaline was introduced.

[6] = test system: heart of a juvenile Xenopus laevis frog; experiment: Isolated frog heart, persistence of beating ex vivo; conditions: 10 μg/ml; Krebs-Ringer buffer with adrenaline 50 μg/ml; without compound about one hour
Procedure: To determine if compound 1436 has such utility, the following experiment was performed. The heart of a juvenile Xenopus laevis frog was dissected from the living animal. The heart was placed into a Petri dish containing Krebs-Ringer buffer with adrenaline 50 μg/ml, and examined with the naked eye. At room temperature, the heart continued beating in a coordinated fashion (atrial beat followed by ventricular beat) for about one hour. In the presence of 10 μg/ml of compound 1436, spontaneous beating persisted up to 24 hours.

[7] = test system: L1210 lymphoblastic leukemia cells; experiment: Mouse model of L1210 leukemia
Procedure: C57B mice were inoculated with L1210 lymphoblastic leukemia cells at an inoculum that causes leukemia in 100% of animals. Mice received compound 1436 at 1, 5, 10 mg/kg every 3 days intraperitoneally.
Of particular interest is the hematological profile determined during the course of treatment. Animals were treated with cisplatin and compound 1436.

HIV clinical isolate = experiment: HIV replication in PHA-stimulated lymphocytes (P-24 antigen Elisa); assay type: cell-based; set-up: P-24 Elisa: unit not given here; conditions: for P-24 Elisa: 7 days
Procedure: (§3) PHA-stimulated lymphocytes were inoculated with a clinical isolate of HIV at a multiplicity of infection of […]. Fresh lymphocytes were obtained and stimulated with PHA and IL-2. After 3 days, 1000 TCID of virus-(HIV clinical isolate) were applied for 1 hour and there was a M.O.I. of 1:10. The cells were washed and in a dose response fashion, and drug in media was applied. After 3 days, the supernatant was exchanged with ½ volume of fresh media and ½ the volume of fresh drug. After 7 days, detergent was added, and HIV P-24 Antigen was determined by Elisa. Viability of the lymphocytes was evaluated along with appearance of the viral gene product p24.

[8] = test system: PHA-stimulated lymphocytes; experiment: Viability of lymphocytes in the HIV replication test; assay type: cell-based
Procedure: as §3

[9] = test system: Human coronary artery smooth muscle cells; experiment: In vitro growth of coronary artery smooth muscle; assay type: cell-based
From the text: as §1
Aminosterols of the invention may also have utility in inhibiting the growth factor mediated proliferation of smooth muscle within the artery. Following coronary angioplasty, reocclusion commonly occurs, secondary to reparative proliferation of the vascular smooth muscle within the wall of the surgically manipulated blood vessel. This process generally takes place over the course of 7-10 days. To evaluate whether an agent could prevent the growth factor mediated proliferation of smooth muscle within the artery, compound 1436 was evaluated in vitro for its effect on the proliferation of human coronary artery smooth muscle. Results for compound 1436 are shown in FIG. 13, and those for squalamine are shown in FIG. 14, with FIG. 15 being a composite logarithmic plot.

[10] = test system: PHA-stimulated human lymphocytes; experiment: Inhibition of mitogen-stimulated growth of human T-cells; assay type: cell-based; conditions: Lymphocyte, 10 μg/ml, read-out: Inhibition of blast transformation
[11] = mice with 5 × 10^5 L1210 cells ip, cisplatin 8 mg/kg ip, compound 1436 10 mg/kg ip q4d

CC(CC[C@@H](OS(=O)(=O)O)C(C)C)[C@H]1CCC2C3C(CC[C@@]21C)[C@@]1(C)CC[C@H](NCCCNCCCCN)C[C@@H]1C[C@H]3O (stereo partly shown) [squalamine]
Cytostatic activity against B16 in culture (Murine B16 melanoma): minimal cytostatic activity
Inhibition of new blood vessel formation (VX2 carcinoma; day 21): about 25%
Inhibition of new blood vessel formation (VX2 carcinoma; days 7 and 14): about 60%
Suppression of tumor growth (human melanoma 1205Lu): suppress the growth of melanoma 1205Lu in RAG-1 mice in a dose-dependent fashion
Effect on cell growth [1]: inhibited the growth
Effect on cell growth [2]: no effect on the growth
Effect on cell growth [3]: no effect on the growth
Inhibition of neutrophil adherence [4]: no inhibition

CC(CC[C@@H](OS(=O)(=O)O)C(C)C)[C@H]1CCC2C3C(CC[C@@]21C)[C@@]1(C)CC[C@H](NCCCNCCCCNCCCN)C[C@@H]1C[C@H]3O (stereo partly shown) [Compound 1436]
Heart rate ([5]; 5 mg/kg): no significant increase in heart rate
Time to fall of arterial pressure ([5]; 5 mg/kg): ≤ 30 s
Mean arterial pressure after dosing ([5]; 5 mg/kg over ten seconds, fallen from about 100 mm Hg): about 70 mm Hg
Pulse pressure after dosing ([5]; 5 mg/kg, reduced from about 40 mm): about 10 mm
Persistence of spontaneous beating [6]: up to 24 hours
Survival of leukemic mice ([7]; highest dose (10 mg/kg every 3 days intraperitoneally)): significant prolongation of life
RBC, Early Time [7, 11]: 4.8 10^6/mm^3
RBC, Late Time [7, 11]: 8.8 10^6/mm^3
WBC, Early Time [7, 11]: 3.3 10^3/mm^3
WBC, Late Time [7, 11]: 3.7 10^3/mm^3
P-24 Elisa (HIV clinical isolate; Conc. 0.5 μM): 40561
P-24 Elisa (HIV clinical isolate; Conc. 1 μM): 7464
P-24 Elisa (HIV clinical isolate; Conc. 5 μM): 3426
P-24 Elisa (HIV clinical isolate; Conc. 10 μM): 421
P-24 Elisa (HIV clinical isolate; Conc. 20 μM): 9
inhibition at 10 µg/mL (HIV clinical isolate; Human immunodeficiency virus 1, Lymphocyte, 10 μg/ml, read-out: Inhibition of antigen synthesis): 97%
Lymphocyte viability retained ([8]; 10 μg/ml): 95%
% Viability ([8]; Conc. 0.5 μM): 91%
% Viability ([8]; Conc. 10 μM): 95%
% Viability ([8]; Conc. 20 μM): 90.1%
Concentration effective in suppressing growth [9]: 10 to 12 µg/mL
Concentration maintaining cells quiescent without loss of viability [9]: about 11 μg/ml
inhibition at 10 µg/mL [10]: > 75%
